System: patient suffering from post-nasal drip and upper laryngeal syndrome
Experiment: two rounds of testing of orally administered, nasally exhaled aerosolized ciclesonide in a patient
Assay type: in vivo
Conditions: one patient; two rounds with an interval of two weeks; two sprays of 200 micrograms ciclesonide into FIG. 3 device, four to six oral inhalations each followed by nasal exhalation, morning and evening for two weeks
From the text: The Applicant has performed two rounds of testing on a patient suffering from post-nasal drip and upper laryngeal syndrome with an interval of two weeks between the rounds, each round consisting in administering a therapeutically effective dose of ciclesonide using the method of the present invention. […] In some embodiments, the therapeutically effective dose of ciclesonide for the treatment of upper airway cough syndrome is from 25 to 800 micrograms. Use of ciclesonide for the treatment of upper airway cough syndrome provides the advantage of avoiding fungal infections typically associated with administration of corticosteroid in the posterior nasal region, pharynx and the larynx.
In conducting the rounds of testing, the Applicant used the embodiment of the oral delivery device of the present invention shown in FIG. 3. […] It should be noted that in some embodiments, the effective volume is greater or smaller than 375 milliliters. In operation, the patient released two sprays of aerosolized ciclesonide into the oral delivery device, each one of the sprays containing 200 micrograms of ciclesonide, and performed four to six oral inhalations, each one of the inhalations being followed by a nasal exhalation into the ambient atmosphere. Each one of the inhalations drew ambient air into the oral delivery device to sweep in an additional amount of aerosolized ciclesonide. […]

Which “patient-reported symptoms typical of upper airway cough syndrome following each round” value does the source give for `CC(C)C(=O)OCC(=O)[C@@]12O[C@H](C3CCCCC3)O[C@@H]1C[C@H]1[C@@H]3CCC4=CC(=O)C=C[C@]4(C)[C@H]3[C@@H](O)C[C@@]12C` [ciclesonide] here?
The value was “significant alleviation of the symptoms”.
